Data from patent US9321804B2, “Synthesis and use of anti-tumor drug LQC-Y” (Beijing University of Chinese Medicine, priority 2011, dated 2016).
Entries after “also recorded” stand apart in the source; their conditions may differ. Where a name gives a salt, the structure may show the parent alone.

Assays:
[1] = test system: S180 sarcoma of mice; assay: Tumor inhibiting effect of LQC-Y3 on tumor bearing S180 mice
Procedure: (§1) The S180 mice that had been inoculated for 7 days were killed by breaking the neck thereof and ascites was taken from the mice respectively in an aseptic environment and the ascites was washed using RPMI1640 culture medium for 2 times and then made into a 2×10^7/ml cell suspension using aseptic physiological saline. Then the obtained S180 cell suspension was inoculated hypodermically at the right axillary of mice, 0.1 ml for each mouse and 50 mice total, to establish the solid tumor model.
(§2) 60 mice were divided into 2 categories, including 6 groups, according to the random number table method, i.e. normal control group of the first category, and S180 solid tumor groups of the second category which included positive (cyclophosphamide) control group, negative control group, small dosage group, middle dosage group and large dosage group, 10 mice for each group. The experiment was repeated for 3 times.
LQC-Y3 was prepared using 0.5% CMC-Na. The dosage of the small dosage group was 75 mg/Kg, the dosage of the middle dosage group was 150 mg/Kg, and the dosage of the large dosage group was 300 mg/kg. Equal volume of 0.5% CMC-Na was injected into the mice of the negative control group and cyclophosphamide injection 0.02 g/(Kg.d) was injected into the mice of the positive control group. These medicines were administrated 0.1 ml per mouse by intraperitoneal injection every the other day continuously for 15 days. During this period, the common behavior, hair, excrement and so on were observed daily. The mice that had been inoculated with S180 by hypodermic inoculation were killed by breaking the neck thereof after 24 h after the last administration and the tumor, liver and spleen were then taken.
(§3) The weight of the solid tumor group mice were measured after all the administration was finished and then the mice were killed. The spleens and the livers thereof were weighed by an electronic balance. The spleen index was calculated as the spleen weight of a mouse (mg)/the body weight of a mouse (g) and the liver index was calculated as the liver weight of a mouse (100 g)/the body weight of a mouse (g).
(§4) The solid tumor negative control group mice were weighed on the next day after the administration was finished (the eyeballs of the mice were removed to bleed and the serum was collected for subsequent experimental use). Then the mice were killed by breaking the neck thereof. The tumor tissues were taken out and weighed by an electronic balance to calculate the tumor inhibiting ratio.
(§5) All the data were statistically analyzed using SPSS11.0 software pack. The comparison of the enumeration data was carried out with X^2 test. P<0.05 had statistical significance.

[2] = test system: S180 sarcoma of mice; assay: Tumor inhibiting effect of LQC-Y2 in tumor bearing S180 mice
Procedure: as §1, with “[…] /ml” for “2×10^7/ml”
as §2
LQC-Y2 was made into an emulsion using corn oil. The dosage of the small dosage group was 75 mg/Kg, the dosage of the middle dosage group was 150 mg/Kg, and the dosage of the large dosage group was 300 mg/kg. Equal volume of corn oil was injected into the mice of the negative control group, cyclophosphamide injection 0.02 g/(Kg.d) was injected into the mice of the positive control group. These medicines were administrated 0.1 ml per mouse by intraperitoneal injection every the other day continuously for 15 days. During this period, the common behavior, hair and excrement and so on were observed daily. The mice that had been inoculated with S180 by hypodermic inoculation were killed by breaking the necks thereof after 24 h after the last administration and the tumor, liver and spleen were then taken.
as §3, with “over” for “finished”, “mouse(g)” for “mouse (g)”, “mouse(100” for “mouse (100”, “mouse(g).” for “mouse (g).”
as §4, with “tumor-inhibiting” for “tumor inhibiting”
as §5

[3] = test system: Human hepatoma carcinoma cells Bel7402; assay: Proliferation of human hepatoma carcinoma cells Bel7402 by MTT; assay type: cell-based; conditions: for 24 h inhibition ratio (%): Bel7402 cells; for inhibiting effect on the proliferation of Bel7402 cells: cultured in vitro, 10-40 μg/ml
Procedure: Human hepatoma carcinoma cells Bel7402 were recovered and subcultured using a culture flask. The preparation of the experiment was started when the cell growth entered into the exponential growth phase. The cells were then digested using pancreatic enzyme which had been filtrated at an increased pressure to prepare the cell suspension. After that the suspension was dyed for 3 min with 0.4% trypan blue. Then a blood cell counting plate was used to count the living cells which were not dyed and the dead cells which were dyed to blue. The number of the living cells identified by trypan blue was more than 98%.
Three kinds of cells which were in the exponential growth phase were inoculated at the density of 1×10^4/ml, to a 96-well plate, 200 μl for each well. Then the plate was put in a 37° C. 5% CO2 incubation box to be cultured for 24 h. The cultivation liquid was sucked away and 200 μl LQC-Y solutions of different concentrations were added thereinto (prepared with DMEM cultivation liquid containing 4% calf serum and the final concentration of which respectively were 10 μg, 20 μg, 40 μg), 4 parallel wells for each concentration. Supernatant cultivation liquid 100 μl was sucked away carefully from each well after being cultured for 24 h and 48 h, and MTS 20 μl was added into each well and homogeneously mixed. The resultant liquid was cultured in a 37° C. 5% CO2 incubation box for a further 1 h. An enzyme-labeling quantitative instrument was used to measure the absorbance at 492 nm. The experiment was repeated for 3 times and then an inhibition ratio was calculated.
The inhibition ratio of cell proliferation (%)=[(average OD value of control group-average OD value of the administration group)/average OD value of control group]×100%

[4] = test system: Human hepatoma carcinoma cells Bel7402; assay: as above; assay type: cell-based; conditions: 40 μg/ml
[5] = test system: ICR white mice; assay: Acute toxic experiment of mice by oral administration; assay type: in vivo; design: key to Animal reaction in 14 days after the administration: Appearance / Animal reaction in 14 days after the administration: Behavior / Animal reaction in 14 days after the administration: Hair / Animal reaction in 14 days after the administration: Respiration / Animal reaction in 14 days after the administration: Posture / Animal reaction in 14 days after the administration: Reaction: ✓ means normal; conditions: for Animal reaction in 14 days after the administration: Death: 10 animals; for Animal reaction in 14 days after the administration: Death / Animal reaction in 14 days after the administration: Appearance / Animal reaction in 14 days after the administration: Behavior / Animal reaction in 14 days after the administration: Hair / Animal reaction in 14 days after the administration: Posture / Animal reaction in 14 days after the administration: Reaction / Animal reaction in 14 days after the administration: Respiration: oral 3 x 2000 mg/kg (6000 mg/kg) in one day
Procedure: 1. Experimental Project: Acute Toxic Experiment of Mice by Oral Administration
ICR white mice (half female and half male, 18-22 g, experiment animal certificate No.: SCXK (Jing) 2006-0009);
LQC-Y3 (white powder (self prepared); and LQC-Y3 5000 mg was dissolved into 0.5% sodium carboxymethyl cellulose 100 ml and then suspended by supersonic wave. The suspension was used in situ).
The qualified animals were quarantined and weighed before the administration. Then the animals were divided into groups randomly by weight. The intragastric administration tool for mice was used to carry out the intragastric administration. The mice were fasted but not water-deprived (continuously for 14 h) overnight before being administrated. The mice were administrated at 9:00 AM for the first time (2000 mg/kg) on the present administration day and observed continuously for 1 h. The mice were administrated for the second time (2000 mg/kg) at an interval of 6 h since the first administration and observed continuously for 1 h. The mice were administrated for the third time (2000 mg/kg) at an interval of 6 h since the second administration, observed continuously for 1 h and then the mice were fed.

[6] = S180 Balb/C mice, cyclophosphamide 0.02 g/(Kg.d) i.p., 15 days
[7] = S180 mice, cyclophosphamide 0.02 g/(Kg.d) i.p., 15 days
[8] = S180 Balb/C mice, large dosage 300 mg/kg i.p. every other day, 15 days
[9] = S180 Balb/C mice, middle dosage 150 mg/Kg i.p. every other day, 15 days
[10] = S180 Balb/C mice, small dosage 75 mg/Kg i.p. every other day, 15 days

O=P1(N(CCCl)CCCl)NCCCO1 (stereo not shown) [Cyclophosphamide, reference compound]
liver index compared with the negative control group ([1]; LQC-Y3 dosage groups, cyclophosphamide 0.02 g/(Kg.d)): smaller than those of the negative control group
Tumor inhibiting ratio (%) [1, 6]: 73.40%
Tumor weight (g) [1, 6]: 0.25 ± 0.16^(4) g
Weight growth (g) [1, 6]: 6.90 ± 2.04^(1)(3) g
Liver index (100 g/g) [1, 7]: 5.19 ± 0.33 100 g/g
liver index compared with the negative control group ([2]; LQC-Y2 dosage groups, cyclophosphamide 0.02 g/(Kg.d)): smaller than those of the negative control group
Tumor inhibiting ratio (%) [2, 6]: 88.55%
Tumor weight (g) [2, 6]: 0.15 ± 0.13^(4) g
Weight growth (g) [2, 6]: 8.98 ± 3.80^(1)(3) g
Spleen index (100 g/g) [2, 7]: 5.29 ± 0.47^(1)(4) 100 g/g

Cc1nc(C)c(COC(=O)CCC(C)C2CCC3C4C(O)CC5CC(O)CCC5(C)C4CC(O)C23C)nc1C (stereo not shown) [LQC-Y1, (3,5,6-trimethyl pyrazine-2-yl)methyl-4-(3,7,12-trihydroxy-10,13-dimethylhexadecahydro-1H-cyclopenta[a]phenanthren-17-yl)pentanoate]
24 h inhibition ratio (%) ([3]; 10 μg/ml): 67.39%
24 h inhibition ratio (%) ([3]; 20 μg/ml): 76.66%
inhibiting effect on the proliferation of Bel7402 cells [3]: evident inhibiting effect
24 h inhibition ratio (%) [4]: 86.44%

Cc1nc(C)c(COC(=O)C23CCC(C)(C)CC2C2=CCC4C5(C)CCC(O)C(C)(C)C5CCC4(C)C2(C)CC3)nc1C (stereo not shown) [LQC-Y3, (3,5,6-trimethyl pyrazine-2-yl)methyl-10-hydroxy-2,2,6a,6b,9,9,12a-heptamethyl-1,2,3,4,4a,5,6,6a,6b,7,8,8a,9,10,11,12,12a,12b,13,14b-eicosahydropicene-4a-carboxylate]
effect on the growth of the S180 mice sarcoma ([1]; 75-300 mg/kg i.p.): can Notably Inhibit the Growth; also recorded: inhibit the growth of S180 tumor effectively
Tumor inhibiting ratio (%) [1, 8]: 50.0%
Tumor weight (g) [1, 8]: 0.47 ± 0.23^(3) g
Tumor inhibiting ratio (%) [1, 9]: 37.23%
Tumor weight [1, 9]: 0.59 ± 0.28 g
Tumor inhibiting ratio (%) [1, 10]: 33.98%
Tumor weight [1, 10]: 0.63 ± 0.30 g
effect on the growth of the S180 sarcoma mice's weight ([1]; mouse, in vivo): no effect
24 h inhibition ratio (%) ([3]; 10 μg/ml): 34.53%
24 h inhibition ratio (%) ([3]; 20 μg/ml): 89.07%
inhibiting effect on the proliferation of Bel7402 cells [3]: evident inhibiting effect
24 h inhibition ratio (%) [4]: 99.16%
toxic reaction ([5]; mice, maximum dosage of 6000 mg/kg per day, oral, observed continuously for 14 days, 6000 mg/kg/day): No toxic reaction; also recorded: no toxic or side effect
Animal reaction in 14 days after the administration: Death ([5]; ♀ ICR mice): 0
Animal reaction in 14 days after the administration: Appearance ([5]; ♀ ICR mice): ✓
Animal reaction in 14 days after the administration: Behavior ([5]; ♀ ICR mice): ✓
Animal reaction in 14 days after the administration: Hair ([5]; ♀ ICR mice): ✓
Animal reaction in 14 days after the administration: Posture ([5]; ♀ ICR mice): ✓
Animal reaction in 14 days after the administration: Reaction ([5]; ♀ ICR mice): ✓
Animal reaction in 14 days after the administration: Respiration ([5]; ♀ ICR mice): ✓
Animal reaction in 14 days after the administration: Death ([5]; ♂ ICR mice): 0
Animal reaction in 14 days after the administration: Appearance ([5]; ♂ ICR mice): ✓
Animal reaction in 14 days after the administration: Behavior ([5]; ♂ ICR mice): ✓
Animal reaction in 14 days after the administration: Hair ([5]; ♂ ICR mice): ✓
Animal reaction in 14 days after the administration: Posture ([5]; ♂ ICR mice): ✓
Animal reaction in 14 days after the administration: Reaction ([5]; ♂ ICR mice): ✓
Animal reaction in 14 days after the administration: Respiration ([5]; ♂ ICR mice): ✓

Cc1nc(C)c(COC(=O)C2(C)CCC3(C)CCC4(C)C(=CC(=O)C5C6(C)CCC(O)C(C)(C)C6CCC54C)C3C2)nc1C (stereo not shown) [LQC-Y4, (3,5,6-trimethyl pyrazine-2-yl)methyl-10-hydroxy-2,4a,6a,6b,9,9,12a-heptamethyl-13-oxo-1,2,3,4,4a,5,6,6a,6b,7,8,8a,9,10,11,12,12a,12b,13,14b-eicosahydropicene-2-carboxylate]
24 h inhibition ratio (%) ([3]; 10 μg/ml): 39.31%
24 h inhibition ratio (%) ([3]; 20 μg/ml): 44.58%
inhibiting effect on the proliferation of Bel7402 cells [3]: evident inhibiting effect
24 h inhibition ratio (%) [4]: 94.42%

Cc1nc(C)c(COC(=O)c2cc(O)c3c(c2)C(=O)c2cccc(O)c2C3=O)nc1C [LQC-Y6, (3,5,6-trimethyl pyrazine-2-yl)methyl-4,5-dihydroxy-9,10-dioxo-9,10-dihydroanthracene-2-carboxylate]
24 h inhibition ratio (%) ([3]; 10 μg/ml): 26.75%
24 h inhibition ratio (%) ([3]; 20 μg/ml): 67.23%
inhibiting effect on the proliferation of Bel7402 cells [3]: inhibiting effect
24 h inhibition ratio (%) [4]: 81.21%

Cc1nc(C)c(COC(=O)C2=CC(O)C(O)C(O)C2)nc1C (stereo not shown) [LQC-Y10, (3,5,6-trimethyl pyrazine-2-yl)methyl 3,4,5-trihydroxycyclohexyl-1-ene formate]
24 h inhibition ratio (%) ([3]; 20 μg/ml): 7.82%
inhibiting effect on the proliferation of Bel7402 cells [3]: inhibiting effect
24 h inhibition ratio (%) [4]: 5.69%
